Measurements reported in patent US6355638B1, “Pyrazolo[1,5-d][1,2,4] triazines for enhancing cognition” (Merck Sharp & Dohme Ltd., priority 1999, dated 2002).

Settings: not given

| Compound | melting point |
| --- | --- |
| Cc1cc(-c2nncc3c(-c4ccccc4)c(OCc4ncn(C)n4)nn23)no1 | 194 to 196 °C |
| Cc1cc(-c2nncc3c(-c4ccco4)c(OCc4ncnn4C)nn23)no1 | 226 to 228 °C |
| Cc1cc(-c2nncc3c(Br)c(OCc4ncnn4C)nn23)no1 | 239 to 241 °C |

Now from value to compound:

| melting point | Compound |
| --- | --- |
| 175 to 178 °C | Cc1cc(-c2nncc3c(C(C)(C)C)c(OCc4ccccn4)nn23)no1 |
| 139 to 141 °C | Cc1cc(-c2nncc3c(C(C)(C)C)c(OCc4cccnc4)nn23)no1 |
| 161 to 164 °C | Cc1cc(-c2nncc3c(C(C)(C)C)c(OCc4ncn(C)n4)nn23)no1 |
| 119 to 121 °C | Cc1cc(-c2nncc3c(C(C)(C)C)c(OCc4ccncc4)nn23)no1 |

Settings: background statement; cited from earlier work

| Compound | proconvulsant activity |
| --- | --- |
| COC(=O)c1cc2c(cn1)[nH]c1ccccc12 [β-CCM] | proconvulsant |

Settings: reported in Psychobiology, 21:101-108; cited from earlier work

| Compound | spatial learning in the Morris watermaze |
| --- | --- |
| COC(=O)c1cc2c(cn1)[nH]c1ccccc12 [β-CCM] | enhanced spatial learning |
